The numbers were not newly measured in US20120231150A1, “Digestive Enzyme Inhibitor and Methods of Use” (TATE & LYLE INGREDIENTS AMERICAS, LLC, priority 2011, published 2012), which cites them from elsewhere.

This data set has as its system postprandial blood glucose. The conditions noted are these: use to control blood sugar levels.

With `C[C@H]1O[C@H](O[C@H]2[C@H](O)[C@@H](O)[C@@H](O[C@H]3[C@H](O)[C@@H](O)C(O)O[C@@H]3CO)O[C@@H]2CO)[C@H](O)[C@@H](O)[C@@H]1N[C@H]1C=C(CO)[C@@H](O)[C@H](O)[C@H]1O` (stereo partly shown) [Acarbose], the side effects entry is “undesirable side effects such as gas, bloating, diarrhea”.
